# According to ChEMBL document CHEMBL1201862, “PubChem BioAssay data set” (2004):
# Active and inactive are the calls of the source.
# Legend:
# Large T antigen = Large T antigen (Simian virus 40, UniProt P03070); format: functional, Betapolyomavirus macacae;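 further: Confirmatory-stage PubChem screen for compounds that inhibit SV40 T antigen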
# [1] = molecular target: Beta-2 adrenergic receptor (Homo sapiens, UniProt P07550); assay: beta2AR agonists driving receptor internalization, dose response, cell-based, FAP fluorogen, flow cytometry, cherry pick 1 (AID 588763); format: functional
# Sequence of Beta-2 adrenergic receptor (P07550 whole entry): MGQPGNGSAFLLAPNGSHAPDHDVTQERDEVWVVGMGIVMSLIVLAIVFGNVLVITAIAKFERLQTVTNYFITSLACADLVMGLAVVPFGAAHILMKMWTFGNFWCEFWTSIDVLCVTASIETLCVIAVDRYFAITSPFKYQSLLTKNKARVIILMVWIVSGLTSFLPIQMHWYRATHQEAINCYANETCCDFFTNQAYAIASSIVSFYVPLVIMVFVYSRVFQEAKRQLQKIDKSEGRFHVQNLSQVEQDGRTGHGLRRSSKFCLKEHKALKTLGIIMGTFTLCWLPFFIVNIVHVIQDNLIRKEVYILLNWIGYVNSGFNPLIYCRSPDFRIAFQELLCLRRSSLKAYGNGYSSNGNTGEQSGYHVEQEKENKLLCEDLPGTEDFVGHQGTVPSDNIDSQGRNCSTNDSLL
# HEK293 [2] = assay: cells; format: functional, cell-based; settings: Homo sapiens
# [3] = molecular target: T1, Nuclear receptor subfamily 0 group B member 1 (Homo sapiens, UniProt P51843); assay: Luminescence-based cell-based high throughput dose response assay for inhibitors of the orphan nuclear receptor subfamily 0, group B, member 1 (DAX1; NR0B1). [Related pubchem assays (depositor defined):AID504766, AID504790]; format: functional
# T1 sequence (P51843 whole entry): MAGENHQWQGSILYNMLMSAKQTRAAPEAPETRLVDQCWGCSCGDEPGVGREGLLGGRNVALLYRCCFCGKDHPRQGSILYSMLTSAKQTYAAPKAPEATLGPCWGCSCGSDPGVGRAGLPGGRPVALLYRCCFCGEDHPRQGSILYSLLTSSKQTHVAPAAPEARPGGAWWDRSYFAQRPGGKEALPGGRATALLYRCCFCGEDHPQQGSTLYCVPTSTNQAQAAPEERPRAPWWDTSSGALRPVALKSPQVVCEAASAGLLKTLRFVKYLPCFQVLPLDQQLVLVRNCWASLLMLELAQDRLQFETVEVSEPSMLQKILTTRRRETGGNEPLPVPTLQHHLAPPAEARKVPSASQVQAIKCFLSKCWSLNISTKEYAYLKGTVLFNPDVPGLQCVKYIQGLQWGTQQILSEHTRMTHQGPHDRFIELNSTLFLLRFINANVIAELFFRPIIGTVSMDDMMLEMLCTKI
# [4] = microbe, parasite or virus in culture; format: functional; settings: Mycobacterium tuberculosis
# [5] = growth suppression of PTEN-null colon cells, dose response, cell-based, HCT116 PTEN knockout (AID 1047); format: functional;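 further: HCT116 colon tumor cells with PTEN knocked out; cells exposed to compound for 60 hours before readout; potency for loss of cell viability measured by luminescence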
# [6] = growth suppression of beta-catenin-knockout colon cells, dose response, cell-based, HCT116, human colon tumor (AID 1045); format: functional;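 further: HCT116 colon tumor cells with beta catenin knocked out; cells exposed to compound for 60 hours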
# [7] = Luminescence Cell-Based Dose Retest to Confirm Inhibitors of Cancer Stem Cells. [Related pubchem assays (depositor defined):AID2717, AID2721]; format: functional; settings: Homo sapiens
# Trypsin = Trypsin (Sus scrofa, UniProt P00761); assay: porcine trypsin inhibitors, dose response, selectivity assay for Rce1 protease inhibitor project, biochemical, quenched peptide fluorescence, cherry-pick (AID 488789)
# Sequence of Trypsin (P00761 whole entry): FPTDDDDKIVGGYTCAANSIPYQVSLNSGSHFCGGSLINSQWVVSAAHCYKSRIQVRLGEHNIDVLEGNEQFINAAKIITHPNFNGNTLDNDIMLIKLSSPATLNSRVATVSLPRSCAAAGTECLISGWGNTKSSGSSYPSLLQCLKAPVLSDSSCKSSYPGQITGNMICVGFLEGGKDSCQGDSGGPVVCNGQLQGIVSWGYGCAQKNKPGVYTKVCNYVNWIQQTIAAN
# CAAX prenyl protease 2 [8] = molecular target: CAAX prenyl protease 2 (Saccharomyces cerevisiae S288c, UniProt Q03530); format: biochemical
# Sequence of CAAX prenyl protease 2 (Saccharomyces cerevisiae S288c, UniProt Q03530) (Q03530 whole entry): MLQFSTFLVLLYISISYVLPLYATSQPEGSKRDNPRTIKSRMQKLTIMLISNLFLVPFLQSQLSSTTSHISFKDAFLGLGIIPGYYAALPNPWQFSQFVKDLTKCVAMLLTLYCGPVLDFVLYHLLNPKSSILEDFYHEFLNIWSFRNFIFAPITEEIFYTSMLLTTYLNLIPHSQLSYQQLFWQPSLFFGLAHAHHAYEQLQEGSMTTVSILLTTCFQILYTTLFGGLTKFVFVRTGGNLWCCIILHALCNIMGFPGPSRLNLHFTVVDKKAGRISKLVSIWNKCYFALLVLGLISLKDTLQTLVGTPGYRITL
# CAAX prenyl protease 2 [9] = molecular target: CAAX prenyl protease 2 (Homo sapiens, UniProt Q9Y256); assay: human Rce1 protease inhibitors, dose response, biochemical, yeast membranes, quenched-peptide fluorescence, cherry-pick (AID 588849)
# Sequence of CAAX prenyl protease 2 (Homo sapiens, UniProt Q9Y256) (Q9Y256 whole entry): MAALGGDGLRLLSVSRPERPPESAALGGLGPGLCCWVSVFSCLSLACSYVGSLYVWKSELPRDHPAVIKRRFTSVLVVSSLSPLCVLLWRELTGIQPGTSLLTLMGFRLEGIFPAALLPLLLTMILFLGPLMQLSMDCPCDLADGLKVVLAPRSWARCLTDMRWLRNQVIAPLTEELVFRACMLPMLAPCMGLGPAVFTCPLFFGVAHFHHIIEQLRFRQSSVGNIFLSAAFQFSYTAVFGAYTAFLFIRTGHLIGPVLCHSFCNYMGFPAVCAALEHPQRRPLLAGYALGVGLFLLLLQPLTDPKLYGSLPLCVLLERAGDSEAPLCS
# Protein skinhead-1 = molecular target: T2, Protein skinhead-1 (Caenorhabditis elegans, UniProt P34707); format: functional
# T2 sequence (P34707 whole entry): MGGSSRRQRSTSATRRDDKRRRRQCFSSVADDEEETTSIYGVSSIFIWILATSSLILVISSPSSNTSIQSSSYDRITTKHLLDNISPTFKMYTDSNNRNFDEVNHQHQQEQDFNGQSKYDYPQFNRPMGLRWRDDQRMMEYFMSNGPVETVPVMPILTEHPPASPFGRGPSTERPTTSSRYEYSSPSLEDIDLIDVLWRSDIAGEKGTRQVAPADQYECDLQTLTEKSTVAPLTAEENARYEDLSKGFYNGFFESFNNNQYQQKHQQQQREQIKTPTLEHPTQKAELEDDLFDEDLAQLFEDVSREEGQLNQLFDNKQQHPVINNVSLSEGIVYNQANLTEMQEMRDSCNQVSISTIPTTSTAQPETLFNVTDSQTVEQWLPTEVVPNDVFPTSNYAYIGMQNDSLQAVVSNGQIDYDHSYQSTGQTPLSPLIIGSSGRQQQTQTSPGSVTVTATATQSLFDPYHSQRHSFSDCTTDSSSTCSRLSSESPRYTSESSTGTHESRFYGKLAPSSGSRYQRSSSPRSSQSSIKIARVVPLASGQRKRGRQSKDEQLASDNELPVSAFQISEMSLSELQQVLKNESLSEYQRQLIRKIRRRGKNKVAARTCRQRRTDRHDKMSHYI
# HEK293 [10] = assay: inhibitors of LMP1-driven NF-kB reporter, dose response, cell-based, HEK293, luciferase, cherry-pick (AID 588343); format: functional; settings: Homo sapiens
# [11] = molecular target: Latent membrane protein 1 (Human herpesvirus 4 (strain B95-8), UniProt P03230); assay: TES1-eGFP NF-kB reporter inhibition versus Tet-On dsRED, dose response, selectivity assay for LMP1 NF-kB inhibitor project, imaging, HEK293T, dual-color eGFP/dsRED, cherry-picks (AID 588398); format: functional, cell-based
# Sequence of Latent membrane protein 1 (P03230 whole entry): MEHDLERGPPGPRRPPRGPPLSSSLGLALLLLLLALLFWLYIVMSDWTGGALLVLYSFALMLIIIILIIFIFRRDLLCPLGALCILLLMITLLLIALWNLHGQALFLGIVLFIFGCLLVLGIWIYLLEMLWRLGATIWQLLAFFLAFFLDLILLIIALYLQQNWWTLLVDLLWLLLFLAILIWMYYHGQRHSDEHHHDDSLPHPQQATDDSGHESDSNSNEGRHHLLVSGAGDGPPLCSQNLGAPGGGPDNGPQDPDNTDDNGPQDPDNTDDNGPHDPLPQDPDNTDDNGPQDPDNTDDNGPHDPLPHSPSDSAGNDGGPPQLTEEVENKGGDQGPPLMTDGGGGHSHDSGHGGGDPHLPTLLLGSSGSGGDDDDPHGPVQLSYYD
# [12] = Shn3 3'UTR reporter inhibitors, dose response, cell-based, Clone20 osteoblasts, firefly luciferase, cherry-picked (AID 624132); format: functional;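 further: firefly luciferase luminescence from reporter carrying the Shn3 3'UTR in osteoblasts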
# [13] = HepG2 cell cytotoxicity, dose response, cytotoxicity control for Shn3 inhibitor project, CellTiter-Glo, cherry-picked (AID 624134); format: functional, cell-based
# [14] = molecular target: T3, Apoptotic protease-activating factor 1 (Homo sapiens, UniProt O14727); format: functional
# T3 sequence (O14727 whole entry): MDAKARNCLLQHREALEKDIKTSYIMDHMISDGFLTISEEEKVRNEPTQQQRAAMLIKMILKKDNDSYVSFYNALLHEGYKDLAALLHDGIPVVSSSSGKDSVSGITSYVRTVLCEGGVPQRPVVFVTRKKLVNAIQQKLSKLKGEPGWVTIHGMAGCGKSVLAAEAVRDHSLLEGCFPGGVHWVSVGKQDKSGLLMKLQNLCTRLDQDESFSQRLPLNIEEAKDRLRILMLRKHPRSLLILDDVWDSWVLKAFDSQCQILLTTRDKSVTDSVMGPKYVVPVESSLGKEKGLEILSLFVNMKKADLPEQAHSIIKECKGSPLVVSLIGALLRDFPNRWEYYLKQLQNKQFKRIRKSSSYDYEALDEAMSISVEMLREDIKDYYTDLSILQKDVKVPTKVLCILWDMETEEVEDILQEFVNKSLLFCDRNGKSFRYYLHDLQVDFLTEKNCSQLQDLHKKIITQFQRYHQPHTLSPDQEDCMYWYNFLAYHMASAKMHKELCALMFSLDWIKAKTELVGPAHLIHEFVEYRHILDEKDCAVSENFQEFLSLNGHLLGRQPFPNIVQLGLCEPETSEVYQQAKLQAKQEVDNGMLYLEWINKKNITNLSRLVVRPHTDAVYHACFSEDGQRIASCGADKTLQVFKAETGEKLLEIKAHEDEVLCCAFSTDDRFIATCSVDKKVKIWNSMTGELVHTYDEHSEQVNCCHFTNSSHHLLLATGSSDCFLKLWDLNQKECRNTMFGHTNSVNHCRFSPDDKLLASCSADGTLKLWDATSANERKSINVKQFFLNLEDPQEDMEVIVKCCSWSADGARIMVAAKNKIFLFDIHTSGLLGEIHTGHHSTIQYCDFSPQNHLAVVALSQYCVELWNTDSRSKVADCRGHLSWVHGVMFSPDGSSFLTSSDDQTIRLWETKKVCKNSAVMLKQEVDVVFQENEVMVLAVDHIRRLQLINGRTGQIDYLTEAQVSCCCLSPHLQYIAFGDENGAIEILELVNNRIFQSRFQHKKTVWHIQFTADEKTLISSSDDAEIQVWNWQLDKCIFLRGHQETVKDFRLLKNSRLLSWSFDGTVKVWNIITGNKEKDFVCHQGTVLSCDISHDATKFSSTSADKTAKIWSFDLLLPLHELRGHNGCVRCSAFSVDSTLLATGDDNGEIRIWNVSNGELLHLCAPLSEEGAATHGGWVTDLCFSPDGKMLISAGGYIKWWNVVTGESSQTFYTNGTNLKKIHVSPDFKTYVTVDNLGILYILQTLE
# CAAX prenyl protease 1 = CAAX prenyl protease 1 (Saccharomyces cerevisiae S288c, UniProt P47154); assay: Ste24 protease inhibitors, dose response, biochemical, S. cerevisiae, plate reader, cherry-pick (AID 488815)
# Sequence of CAAX prenyl protease 1 (P47154 whole entry): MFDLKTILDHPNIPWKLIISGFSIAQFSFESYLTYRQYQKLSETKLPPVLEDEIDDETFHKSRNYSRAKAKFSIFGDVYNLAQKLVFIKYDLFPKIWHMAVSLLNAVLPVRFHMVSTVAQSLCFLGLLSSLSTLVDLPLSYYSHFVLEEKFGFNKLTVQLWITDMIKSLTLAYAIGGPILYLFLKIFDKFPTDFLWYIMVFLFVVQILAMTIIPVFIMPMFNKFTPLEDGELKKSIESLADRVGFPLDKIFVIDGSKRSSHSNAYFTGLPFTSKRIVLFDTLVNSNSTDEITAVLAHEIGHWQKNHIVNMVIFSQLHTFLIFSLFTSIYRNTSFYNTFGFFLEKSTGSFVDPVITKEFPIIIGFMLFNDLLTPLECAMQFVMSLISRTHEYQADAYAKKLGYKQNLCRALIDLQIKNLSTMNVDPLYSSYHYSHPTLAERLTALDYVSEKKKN
# [15] = molecular target: Dual specificity tyrosine-phosphorylation-regulated kinase 1A (Rattus norvegicus, UniProt Q63470); format: biochemical, Homo sapiens
# Sequence of Large T antigen (P03070 whole entry): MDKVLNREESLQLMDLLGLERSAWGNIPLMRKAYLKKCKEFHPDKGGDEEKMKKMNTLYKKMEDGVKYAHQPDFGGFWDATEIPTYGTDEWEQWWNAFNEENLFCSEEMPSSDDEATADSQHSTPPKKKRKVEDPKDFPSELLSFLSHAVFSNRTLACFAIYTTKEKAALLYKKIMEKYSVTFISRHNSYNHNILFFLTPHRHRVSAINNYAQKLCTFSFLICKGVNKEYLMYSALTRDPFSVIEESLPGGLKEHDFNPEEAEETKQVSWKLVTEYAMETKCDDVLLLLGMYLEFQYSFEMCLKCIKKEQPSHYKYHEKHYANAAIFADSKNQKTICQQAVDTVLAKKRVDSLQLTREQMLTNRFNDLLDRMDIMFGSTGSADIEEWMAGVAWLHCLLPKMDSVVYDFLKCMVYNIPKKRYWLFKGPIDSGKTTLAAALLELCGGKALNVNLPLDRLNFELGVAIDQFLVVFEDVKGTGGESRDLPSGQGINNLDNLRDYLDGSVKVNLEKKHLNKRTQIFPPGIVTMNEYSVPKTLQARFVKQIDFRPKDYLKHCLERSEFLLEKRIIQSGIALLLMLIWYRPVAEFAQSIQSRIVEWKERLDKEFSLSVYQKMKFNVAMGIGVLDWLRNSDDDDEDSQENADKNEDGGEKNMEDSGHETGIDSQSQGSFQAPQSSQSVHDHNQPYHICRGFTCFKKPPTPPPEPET
smiles,measurement,setting,value
CC(=O)c1cccc(S(=O)(=O)N2CCCC(c3nc(-c4ccc(C)o4)no3)C2)c1 (configuration not stated),IC50,Large T antigen,36.4 µM (active)
same,EC50,[1],0.143 µM (active)
Cc1ccc(C(=O)OCC(=O)Nc2nc(-c3ccccc3)cs2)cc1NC(=O)c1ccco1,EC50,[1],1.41 µM (active)
COc1ccc(S(=O)(=O)Cc2ccc(C(=O)NC3CC3)o2)cc1,IC50,HEK293 [2],> 67.6 µM (inactive)
same,IC50,[3],> 67.6 µM (inactive)
COc1ccc(CNC(=O)c2c(N)n(CCCN3CCOCC3)c3nc4ccccc4nc23)cc1,CC50,[4],24.5 µM (active)
same,EC50,[5],17.4 µM (active)
same,EC50,[6],15.3 µM (active)
same,AC50,[7],6.56 µM (active)
same,AC50,Trypsin,10.5 µM (active)
same,AC50,CAAX prenyl protease 2 [8],22.9 µM (active)
same,AC50,CAAX prenyl protease 2 [9],23.9 µM (active)
same,IC50,Protein skinhead-1,> 100 µM (inactive)
CN1OC[C@@H]2CN[C@H](c3ccc(-c4cc5ccccc5o4)cc3)C[C@@H]21,AC50,HEK293 [10],0.0503 µM (active)
same,AC50,[11],51.1 µM (active)
same,AC50,[12],< 0.26 µM (active)
same,AC50,[13],> 70 µM (inactive)
CCC(CN(C)C)Oc1cc(NCc2ccccc2)c2ncn(C(C)C)c2c1 (configuration not stated),IC50,[14],7.98 µM (active)
CCc1ccc(S(=O)(=O)Nc2c(C)nc3ncnn3c2O)cc1,IC50,HEK293 [2],> 67.5 µM (inactive)
same,IC50,[3],> 67.5 µM (inactive)
COc1ccc2c3c([nH]c2c1)C(C)=NCC3 [HARMALINE],AC50,CAAX prenyl protease 1,2.77 µM (active)
same,AC50,[15],1.24 µM (active)
